≈ marks a conversion by molar mass, not a printed value. Where two headings read alike, the source gives them in different places. Residues, ends and D or L forms follow the SMILES beside them.

What all share (experiment): microbe, parasite or virus in culture
Assay [1] concerns E. coli clinical isolates. The essentials: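 MIC90 from CLSI broth microdilution (M07-A9) in two clinical-isolate panels. US panel (331 isolates, 2010-2012): AA139 diluted in 0.01% acetic acid/0.1% BSA. Worldwide panel (445 isolates, 2011-2013, four regions): CAMHB, with 0.002% Tween 80 added for AA139 and polymyxin B.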
Assay [2] relates to E. coli (AID#172 & ATCC 25922). In kind it is cell-based, Escherichia coli. The following applies: for MIC: Escherichia coli. Here is the method:
The test media was cation-adjusted MHB (CAMHB, Becton Dickinson) supplemented with 2% Noble Agar (Becton Dickinson) and additionally for AA139 with 0.1% BSA. The agar dilution MIC values were determined as recommended by Clinical and Laboratory Standards Institute (CLSI)[47]. […] The inoculum for the spontaneous mutation plates targeted 10^9 to 10^10 colony-forming units (CFU) per plate. The viable count of each suspension was determined by plating serial ten-fold dilutions onto MHB/NA in duplicate. In addition, agar plates without drug were inoculated as positive controls. Plates were inspected for growth at both 24 and 48 h. Colony counts were determined manually. Using the counts at 48 h, the spontaneous mutation frequency was calculated using the following equation: (average number of colonies from duplicate selection plates)/(total number of cells inoculated onto each plate). If there were no colonies on the antibiotic selection plates, the spontaneous mutation frequency was reported as less than the frequency observed with one colony to indicate that the spontaneous mutation frequency was less than the limit of detection (one CFU).

In a further assay the test system is E. coli ATCC 25922. The assay is classed as cell-based, Escherichia coli. The following applies: ATCC 25922. The procedure, abridged:
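Broth microdilution MIC in Mueller Hinton broth, 12-point 2-fold series from 128 or 64 down to 0.06 or 0.03 μg mL^−1, 5 × 10^5 CFU mL^−1 inoculum. Read visually after 18-20 h at 37 °C without shaking; n ≥ 6. Additional tests in CAMHB, and in MHB with 1% agarose.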

In the next assay the test system is K. pneumoniae. In kind it is cell-based, Klebsiella pneumoniae. The following applies: n=2 to 6, mode or median.
In the next assay the test system is P. aeruginosa. In kind it is cell-based, Pseudomonas aeruginosa. The following applies: P. aeruginosa FADDI-070 MDR, PmxR; n=2 to 6, mode or median.
Where [3] appears, read: Worldwide isolates 2011-2013, E. coli n = 112.

Take `C[C@H]1COc2c(N3CCN(C)CC3)c(F)cc3c(=O)c(C(=O)O)cn1c23` [LEV, levofloxacin, reference compound]: the MIC90 in assay [1] (Escherichia coli) and in assay [1] (setting [3]) was 16 µg/mL (≈ 44.3 µM) throughout. In assay [1] (setting [3]), the MIC50 came out at 0.06 µg/mL (≈ 0.166 µM). For the same molecule, the MIC turned out to be 0.03 µg/mL (≈ 0.083 µM) in assay [2] (ATCC25922, read-out: Agar (Noble) Dilution MIC, E. coli ATCC 25922) and 8 µg/mL (≈ 22.1 µM) in assay [2] (ATCC25922, read-out: Agar (Noble) Dilution MIC, E. coli AUD172).

Regarding `CC(C)[C@@H]1NC(=O)[C@H](Cc2ccc(O)cc2)NC(=O)[C@H](Cc2c[nH]c3ccccc23)NC(=O)[C@@H](NC(=O)[C@H](Cc2ccccc2)NC(=O)CN)CSSC[C@@H](C(=O)N[C@@H](CC(N)=O)C(=O)O)NC(=O)[C@H](CCCNC(=N)N)NC(=O)[C@H](CCCNC(=N)N)NC(=O)[C@H](Cc2ccc(O)cc2)NC(=O)[C@@H]2CSSC[C@H](NC1=O)C(=O)N[C@@H](C)C(=O)N[C@@H](CCCNC(=N)N)C(=O)N[C@@H](CCCNC(=N)N)C(=O)N[C@@H](CC(N)=O)C(=O)NCC(=O)N[C@@H](C)C(=O)N[C@@H](CCCNC(=N)N)C(=O)N[C@@H](C(C)C)C(=O)N2` [AA139] (HELM PEPTIDE1{G.F.C.W.Y.V.C.A.R.R.N.G.A.R.V.C.Y.R.R.C.N}$PEPTIDE1,PEPTIDE1,3:R3-20:R3|PEPTIDE1,PEPTIDE1,7:R3-16:R3$$$V2.0), in the assay with E. coli ATCC 25922, the “MIC, MHB” value was 0.125 µg/mL (≈ 0.049 µM). The “MIC, Serum (50%)” value stood at 8 µg/mL (≈ 3.14 µM) against K. pneumoniae (K. pneumoniae ATCC 700603 ESBL, OXA-2/SHV-18) and 8 µg/mL (≈ 3.14 µM) in the assay on P. aeruginosa. For the same molecule, the figures for the “MIC, Survanta (5%)” value in the assay on K. pneumoniae (K. pneumoniae BAA-2146 NDM-1) and against P. aeruginosa were 2 µg/mL (≈ 0.784 µM) and 8 µg/mL (≈ 3.14 µM), respectively. The “MIC against colistin-resistant isolates (did not surpass)” value in assay [1] (E. coli with a colistin MIC of 4 to 16 μg mL^−1, US panel) is ≤ 0.5 µg/mL. For the same molecule, the MIC90 stood at 0.5 µg/mL (≈ 0.196 µM) in assay [1] (US isolates 2010–2012, E. coli MDR, n = 31) and 0.5 µg/mL (≈ 0.196 µM) in assay [1] (Worldwide isolates 2011–2013, E. coli incl. non-MDR, MDR, XDR, n = 112). Also, in assay [1] (clinical isolates), the “MIC90 (E. coli)” value worked out at 1.0 µg/mL (≈ 0.392 µM). The “Agar (Noble) Dilution MIC” value in assay [2] (E. coli ATCC 25922) and in assay [2] (E. coli AUD172) was 8 µg/mL throughout.

“polymyxin B [PolymyxinB, reference compound]”: in assay [1] (setting [3]), the MIC50 stood at 0.03 µg/mL and the MIC90 was 0.03 µg/mL.

As to `CNC(C)C1CCC(N)C(OC2C(N)CC(N)C(OC3OCC(C)(O)C(NC)C3O)C2O)O1` (centres unmarked) [Gentamicin, gentamicin, reference compound], the MIC90 is 32 µg/mL (≈ 67 µM) in assay [1] (Escherichia coli); > 32 µg/mL in assay [1] (Escherichia coli, US isolates 2010–2012, E. coli MDR, n = 31); 8 µg/mL (≈ 16.8 µM) in assay [1] (Escherichia coli, US isolates 2010–2012, E. coli Non-MDR, n = 24); 32 µg/mL (≈ 67 µM) in assay [1] (setting [3]). Moreover, in assay [1] (setting [3]), the MIC50 stood at 0.5 µg/mL (≈ 1.05 µM).
